The source of these data is ChEMBL document CHEMBL4138079, “New cycloartane type-triterpenoids from the areal parts of Caragana sukiensis and their biological activities” (Eur J Med Chem, 2017).

The subject of data set [1] is HeLa. Briefly: Cytotoxicity against human HeLa cells assessed as reduction in cell viability after 48 hrs by MTT assay. In kind it is functional, cell-based. (Formazan colour is commonly taken as a measure of viable cells.)
In data set [2] the test system is A549. In words: Cytotoxicity against human A549 cells assessed as reduction in cell viability after 48 hrs by MTT assay. The data set is classed as functional, cell-based. The note with it: A549, 48 h.
For data set [3], the system named is MCF7. Briefly: Cytotoxicity against human MCF7 cells assessed as reduction in cell viability after 48 hrs by MTT assay. The note with it: MCF7, 48 h. In kind it is functional, cell-based.
Data set [4] concerns DU-145. Briefly: Cytotoxicity against human DU145 cells assessed as reduction in cell viability after 48 hrs by MTT assay. The note with it: DU-145, 48 h. The data set is classed as functional, cell-based.
Data set [5] has as its system HEK293. In words: Cytotoxicity against human HEK293 cells assessed as reduction in cell viability after 48 hrs by MTT assay. The data set is classed as cell-based. The note with it: HEK293, 48 h.
In data set [6] the test system is Spodoptera litura. Briefly: Antifeedant activity in Spodoptera litura third-instar larvae assessed as increase in feeding deterrence by measuring antifeedant index at 5 ug/cm2 after 24 hrs by leaf disk method. In kind it is functional.
The test system of data set [7] is Spodoptera litura. In words: Antifeedant activity in Spodoptera litura third-instar larvae assessed as increase in feeding deterrence after 24 hrs by leaf disk method. In kind it is functional.
For data set [8], the system named is Spodoptera litura. Briefly: Insecticidal activity in Spodoptera litura third-instar larvae assessed as larval mortality at 5 ug/cm2 after 24 hrs by leaf disk method relative to control. The note with it: foliar. In kind it is functional.
Data set [9] deals with Spodoptera litura. Briefly: Toxicity in Spodoptera litura third-instar larvae assessed as increase in larval mortality after 24 hrs by leaf disk method. The data set is classed as organism-based. The note with it: in vivo.
Data set [10] relates to Spodoptera litura. In words: Antifeedant activity in Spodoptera litura third-instar larvae assessed as larval duration time after 24 hrs by leaf disk method (reference value: 10.1 +/- 0.1 day). The data set is classed as functional.
In data set [11] the test system is Spodoptera litura. Briefly: Antifeedant activity in Spodoptera litura assessed as pupal weight after 24 hrs by leaf disk method (reference value: 0.245 +/- 0.02 g). The data set is classed as functional.
Data set [12] relates to Spodoptera litura. In words: Antifeedant activity in Spodoptera litura assessed as pupal mortality after 24 hrs by leaf disk method (reference value: 0%). In kind it is functional.
In data set [13] the test system is Spodoptera litura. Briefly: Antifeedant activity in Spodoptera litura third-instar larvae assessed as increase in feeding deterrence by measuring antifeedant index at 2.8 ug/cm2 after 24 hrs by leaf disk method. In kind it is functional.
For data set [14], the system named is Spodoptera litura. In words: Insecticidal activity in Spodoptera litura third-instar larvae assessed as increase in larval mortality at 2.8 ug/cm2 after 24 hrs by leaf disk method relative to control. In kind it is functional. The note with it: foliar.

What is called IC50 is the concentration needed to halve the response being measured. As a reminder, the mortality is the share of the test organisms that died. Turning to `C[C@@H]1C[C@H]([C@H](O)C(C)(C)O)O[C@H]2OC(=O)[C@@]3(C)[C@@H]4CC[C@H]5C(C)(C)C(=O)CC[C@@]56C[C@@]46CC[C@]3(C)[C@H]21`, the IC50 in data set [1] was 17.8 µM; in data set [2], 16.3 µM; in data set [3] it was 24.8 µM; in data set [4], 22.4 µM; in [5], 79.3 µM. Further, the Activity_index in data set [6] is 93.6. Besides, the ED50 in data set [7] turned out to be 0.67 microg/cm2. Also, in data set [8], the mortality at 5 µg/cm2 came to 94.6%. The LD50 in data set [9] is 0.91 microg/cm2.
`C[C@@H]1C[C@H]([C@H](O)C(C)(C)O)O[C@H]2OC(=O)[C@@]3(C)[C@@H]4CC[C@H]5C(C)(C)C(=O)C=C[C@@]56C[C@@]46CC[C@]3(C)[C@H]21`: the IC50 in [1] stood at 63.3 µM; in data set [2], 29.4 µM; in data set [3], 27.2 µM; in [4], 36.1 µM; in [5], 158 µM. Also, the Activity_index in [6] was 61.2. In data set [7], the ED50 stood at 12.239 microg/cm2. Further, the mortality at 5 µg/cm2 in data set [8] came out at 11.3%. In addition, in [10], the Time turned out to be 11.9 days. Moreover, the Activity in [11] was 0.226 g. Also, the mortality in data set [12] came out at 91.3%.
On to `COc1cccc2c1C(=O)c1c(O)c3c(c(O)c1C2=O)C[C@@](O)(C(=O)CO)C[C@@H]3O[C@H]1C[C@H](N)[C@H](O)[C@H](C)O1` [DOXORUBICIN], for which the values for the 50% inhibitory concentration (IC50) in data set [1], in data set [2] and in [4] were 1.09 µM, 1.95 µM and 1.62 µM, respectively.
Regarding `CC(=O)O[C@H]1[C@H](O[C@H]2CC[C@]34C[C@]35CC[C@]3(C)[C@@H]([C@@]6(C)CC[C@@H](C(C)(C)O)O6)[C@@H](O)C[C@@]3(C)[C@@H]5C[C@H](O)[C@H]4C2(C)C)OC[C@@H](O)[C@@H]1O`, the IC50 in data set [1] was determined as 9.71 µM; in data set [2], 2.24 µM; in data set [3], 2.93 µM; in [4] it was 11.3 µM; in data set [5], 121 µM. In data set [6], the Activity_index worked out at 64.1. For the same compound, the ED50 in data set [7] was 1.689 microg/cm2. Also, in data set [8], the mortality at 5 µg/cm2 was 19.3%. Also, the Time in data set [10] stood at 13.4 days. In data set [11], the Activity was 0.219 g. Besides, the mortality in data set [12] is reported as 90.1%.
Turning to `CC1(C)C[C@@H](O)[C@]2(C)CC[C@]3(C)C(=CC[C@@H]4[C@@]5(C)CC[C@H](O)[C@](C)(CO)[C@@H]5CC[C@]43C)[C@@H]2C1` [SOYASAPOGENOL B], the IC50 in data set [1] is 3.49 µM; in [2] it was 2.1 µM; in [3], 2.33 µM; in data set [4], 10.9 µM; in [5], 124 µM. Moreover, the Activity_index in [6] is 68.1. Further, the ED50 in data set [7] worked out at 5.22 microg/cm2. In [8], the mortality at 5 µg/cm2 was 11.6%. In data set [10], the Time was 12.1 days. Also, the Activity in data set [11] amounted to 0.251 g. In data set [12], the mortality was 96.7%.
Take `CC1(C)C[C@@H](O)[C@]2(C)CC[C@]3(C)C(=CC[C@@H]4[C@@]5(C)CCC(=O)[C@](C)(CO)[C@@H]5CC[C@]43C)[C@@H]2C1`: the IC50 in data set [1] came out at 18.6 µM; in data set [2] it was 21.2 µM; in [3], 28.7 µM; in data set [4] it was 26 µM; in [5] it was 95.6 µM. Besides, the Activity_index in [6] was 21.8. Moreover, the mortality at 5 µg/cm2 in [8] came out at 0%. The Time in data set [10] came out at 11.1 days. For the same compound, the Activity in data set [11] was determined as 0.249 g. The mortality in data set [12] is 11.2%.
In the case of `C[C@@H]1C[C@H]([C@H](O)C(C)(C)O)O[C@H]2O[C@H](O)[C@@]3(C)[C@@H]4CC[C@H]5C(C)(C)[C@@H](O[C@@H]6OC[C@@H](O)[C@H](O)[C@H]6O)CC[C@@]56C[C@@]46CC[C@]3(C)[C@H]21`, the IC50 in data set [1] is 57 µM; in data set [2], 37.5 µM; in [3] it was 43.2 µM; in [4] it was 59.2 µM; in data set [5], 79.2 µM. Further, the Activity_index in data set [6] turned out to be 59.3. For the same compound, in [7], the ED50 is 3.61 microg/cm2. The mortality at 5 µg/cm2 in [8] is 19.4%. For the same compound, the Time in [10] was 11.8 days. For the same compound, in [11], the Activity amounted to 0.264 g. Also, the mortality in [12] was found to be 92.4%.
With `CC1(C)CC[C@]2(C)CC[C@]3(C)C(=CC[C@@H]4[C@@]5(C)CC[C@H](O)C(C)(C)[C@@H]5CC[C@]43C)[C@@H]2C1` [beta-AMYRIN], the IC50 in data set [1] was determined as 27.9 µM; in data set [2] it was 23.6 µM; in data set [3] it was 35.3 µM; in [4], 27.9 µM; in data set [5] it was 94.4 µM. Also, in data set [6], the Activity_index is recorded as 59.4. Further, the ED50 in data set [7] stood at 28.69 microg/cm2. The mortality at 5 µg/cm2 in [8] came out at 10.9%. In addition, the Time in [10] amounted to 11.5 days. The Activity in data set [11] is given as 0.232 g. Besides, in data set [12], the mortality was 89.9%.
`C/C=C(\C)C(=O)O[C@H]1C[C@@H](OC(C)=O)[C@@]2(C(=O)OC)CO[C@H]3[C@@H](O)[C@@](C)([C@]45O[C@@]4(C)[C@H]4C[C@@H]5O[C@@H]5OC=C[C@@]54O)[C@H]4[C@]1(CO[C@]4(O)C(=O)OC)[C@@H]32` [AZADIRACTIN]: in [13], the Activity_index was 99.1. In data set [7], the ED50 amounted to 1.8 microg/cm2. The mortality at 2.8 µg/cm2 in data set [14] is 100%. In addition, in data set [9], the LD50 worked out at 0.84 microg/cm2.
For the compound `C[C@@H]1C[C@H]([C@H](O)C(C)(C)O)O[C@H]2O[C@H](O)[C@@]3(C)[C@@H]4CC[C@H]5C(C)(C)[C@@H](O)CC[C@@]56C[C@@]46CC[C@]3(C)[C@H]21`, the IC50 in [1] amounted to 63.8 µM; in data set [2] it was 51.1 µM; in data set [3] it was 58.2 µM; in data set [4], 62.1 µM; in data set [5] it was 123 µM. For the same compound, the Activity_index in data set [6] was found to be 91.8. For the same compound, the ED50 in data set [7] was found to be 0.59 microg/cm2. Besides, the mortality at 5 µg/cm2 in [8] amounted to 86.7%. Also, the LD50 in data set [9] is on record as 0.84 microg/cm2.
Regarding `CC(C)(O)[C@@H]1CC[C@](C)([C@H]2[C@@H](O)C[C@@]3(C)[C@@H]4C[C@H](O)[C@H]5C(C)(C)[C@@H](O[C@@H]6OC[C@@H](O)[C@H](O)[C@H]6O)CC[C@@]56C[C@@]46CC[C@]23C)O1`, the IC50 in [1] came to 17.4 µM; in data set [2], 29 µM; in data set [3] it was 31.2 µM; in data set [4], 19.6 µM; in data set [5] it was 99.4 µM. For the same compound, in data set [6], the Activity_index is reported as 70.1. Also, the ED50 in data set [7] is 15.05 microg/cm2. In data set [8], the mortality at 5 µg/cm2 stood at 18.2%. In addition, in data set [10], the Time amounted to 13.4 days. Further, in data set [11], the Activity is 0.212 g. Also, the mortality in data set [12] is 90.9%.
`C[C@@H]1C[C@H]([C@H](O)C(C)(C)O)O[C@H]2O[C@H](O)[C@@]3(C)[C@@H]4CC[C@H]5C(C)(C)C(=O)CC[C@@]56C[C@@]46CC[C@]3(C)[C@H]21`: the IC50 was 55.3 µM in [1]; 36.7 µM in [2]; 38.9 µM in [3]; 53.7 µM in [4]; 167 µM in data set [5]. For the same compound, the Activity_index in [6] is 56.4. The ED50 in data set [7] came to 1.195 microg/cm2. For the same compound, the mortality at 5 µg/cm2 in data set [8] is 11.5%. In addition, the Time in data set [10] is 12.6 days. Moreover, the Activity in data set [11] stood at 0.221 g. Further, the mortality in [12] stood at 88.5%.
